Values joined by “and” are separate entries in the source; they are usually repeats but may differ in a detail not shown here. Equal values may be shown once. “Also recorded” adds a separate entry of the source. Blank lines part the entries; values can stand above or below the compound they belong to.
Tests used:
SdKef = test: Whole cell potassium efflux assay; assay type: cell-based, Shewanella denitrificans OS217; conditions: for K+ efflux (activation of Kef): E. coli MJF335 transformed with wild-type SdKef, grown with GSH, electrophile 0.5 mM
Protocol: Potassium efflux experiments were performed as described previously.[7] Potassium efflux was measured, using an ion selective potassium electrode (ELIT 8031, Nico2000) and a lithium acetate reference electrode (ELIT 003n) with a four-channel ion analyzer (ELIT4), in 2 s intervals. Freshly transformed cells [either E. coli MJF335 cells lacking KefB, KefC, and GshA or MJF645 cells (lacking KefF and KefG in addition to KefB, KefC, and GshA)] were cultured in K115 minimal medium, containing 1 mM GSH, at 37 °C to an OD650 of ∼0.8–1.[11] The cells were filtered and washed with K10 buffer before being suspended in 5 mL of potassium-free K0 buffer. The cells were added to 30 mL of K0 medium in a stirred vessel held at 37 °C with equilibrated electrodes inserted. After 5 min, the electrophile was added to a final concentration of 0.5 mM [except for methylglyoxal (MG), which was added at a concentration of 0.8 mM[6]]. Rate constants were obtained by fitting exponentials to the change in potassium concentration after addition of the electrophile using Origin version 8.0 (Originlab).[7]

SdKefQCTD [1] = biological target: T1, SdKefQCTD (Shewanella denitrificans, UniProt Q12SB3); test: Qualitative fluorescence competition assay with DNGSH (FB:FL ratio); assay type: binding, Shewanella denitrificans OS217; conditions: 1 mM competing ligand, 6 μM SdKefQCTD, 5 μM DNGSH, 525 nm
SdKefQCTD Q419K mutant = test: DNGSH titration to Q419K mutant (background binding), emission peak; set-up: species or system Shewanella denitrificans OS217; conditions: titration of DNGSH to 7 μM SdKefQCTD Q419K
SdKefQCTD [2] = biological target: T1, SdKefQCTD; test: Direct titration of DNGSH, fluorescence emission peak position (λmax); assay type: binding, Shewanella denitrificans OS217
Protocol: (§1) Measurements were performed in buffer C, using a 100 μL cuvette with 3 mm excitation and emission path lengths (Hellma GmbH & Co.) at 20 °C and an Edinburgh Instruments FLS920 spectrometer. Samples containing SdKefQCTD and DNGSH were excited at 340 nm, and emission spectra were measured from 395 to 670 nm. The steady state fluorescence anisotropy was measured with excitation at 340 nm and emission between 540 and 560 nm. Competition experiments were performed using samples pretreated with excess DNGSH, at a 2× protein concentration, and titrated with the ligand under study.
The data were fit using a standard saturation isotherm (see the Supporting Information for further information). For DNGSH fluorescence, λL was measured directly and found to be 572.5 nm. Inverse titrations with high SdKefQCTD concentrations allowed a good estimation of the emission maximum for the bound form (λML) as 530 nm with a quantum yield (Q) of 4. These three parameters were kept fixed during the fitting while Kd and n were optimized. […]
(§2) Analysis of ligand binding by fluorescence spectroscopy. […]
(§3) The conservation of mass for SdKefQCTD is given by n[M]0 = [M] + [ML] where the total concentration of SdKefQCTD subunits is [M]0, n is the number of active binding sites per M, [L]0 is the total concentration of ligand and the concentration of free ligand is [L]. […] If these expressions are substituted into equation 1, a quadratic equation for the protein-ligand complex [ML] is obtained that can be solved for [ML] and expressed as the fraction of bound ligand, fB (equation 2). […]
Two fluorescence parameters were used to obtain fB from experimental data. The peak position in the emission spectrum, λmax, was obtained by fitting a skewed Gaussian to the experimental spectra as described earlier (1). λmax was used as it was less easily disturbed than fluorescence intensity. Secondly, steady state fluorescence anisotropy, robs, was used. […]
sums depending on the fluorescence intensity of the bound and free ligand, IML and […]

SdKefQCTD [3] = biological target: T1, SdKefQCTD; test: Isothermal titration calorimetry (ITC); assay type: binding, Shewanella denitrificans OS217; conditions: for no. of sites (n): sites per subunit
SdKefQCTD [4] = biological target: T1, SdKefQCTD; test: Steady state fluorescence anisotropy titration of DNGSH; assay type: binding, Shewanella denitrificans OS217
Protocol: as §1
The data were fit using a standard saturation isotherm (see the Supporting Information for further information). For DNGSH fluorescence, λL was measured directly and found to be 572.5 nm. […]
as §2, §3
Two fluorescence parameters were used to obtain fB from experimental data. […]

[5] = biological target: SdKefQCTD (soluble construct of the cytosolic regulatory domain of Kef from Shewanella denitrificans OS217, including the Q-linker) (Shewanella denitrificans OS217); test: static multiangle light scattering; purified SdKefQCTD in solution; unpublished observations of the authors; 52.0 ± 2.5 kDa particles against 26.4 kDa per monomer
SdKefQCTD [6] = biological target: T1, SdKefQCTD; test: Differential scanning fluorimetry (DSF); assay type: binding, Shewanella denitrificans OS217; conditions: 1 mM ligand, relative to protein alone
SdKefQCTD [7] = biological target: T1, SdKefQCTD; test: Quantitative fluorescence competition experiment using DNGSH as probe (emission peak); assay type: binding, Shewanella denitrificans OS217; conditions: for no. of sites (n): competition with DNGSH, sites per subunit
[8] = ITC, 25 °C, one-site model, read-out: Kd
[9] = emission peak, competition with DNGSH (Kd 6 μM used for DNGSH)

T1 sequence (Q12SB3 entry or part of it): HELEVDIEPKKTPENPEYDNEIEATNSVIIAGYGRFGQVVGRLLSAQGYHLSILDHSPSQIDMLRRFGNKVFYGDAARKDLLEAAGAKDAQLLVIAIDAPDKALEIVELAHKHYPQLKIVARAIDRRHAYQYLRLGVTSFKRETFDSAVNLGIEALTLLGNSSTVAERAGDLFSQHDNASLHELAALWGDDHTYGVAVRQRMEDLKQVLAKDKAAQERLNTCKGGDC

Compound: O=C1C=CC(=O)N1Cc1ccccc1 [Compound 16]
K+ efflux (activation of Kef) (SdKef): caused significant K^+ release

Compound: N[C@@H](CCC(=O)N[C@@H](CSC1CCCC1=O)C(=O)NCC(=O)O)C(=O)O (stereo partly shown) [Compound 9]
DNGSHbound:DNGSHligand ratio of fluorescence (FB:FL), Kef binding (SdKefQCTD [1]): reduced binding affinity for Kef | K+ efflux (activation of Kef) (SdKef): no activation of K^+ efflux

DNGSHbound:DNGSHligand ratio of fluorescence (FB:FL), Kef binding (SdKefQCTD [1]): reduced binding affinity for Kef
Compound: N[C@@H](CCC(=O)N[C@@H](CSC1CC(=O)CC1=O)C(=O)NCC(=O)O)C(=O)O (stereo partly shown) [Compound 8]

Compound: CN(C)c1cccc2c(S(=O)(=O)NCCCSC[C@H](NC(=O)CC[C@H](N)C(=O)O)C(=O)NCC(=O)O)cccc12 [DNGSH, S-{[5-(dimethylamino)naphthalen-1-yl]sulfonylaminopropyl} glutathione]
binding to Q419K mutant (SdKefQCTD Q419K mutant): unable to bind | Kd (SdKefQCTD [2]): 6 ± 2 µM | Hill coefficient (nH) (SdKefQCTD [2]; DNGSH binding): 1 | no. of sites (n) (SdKefQCTD [2]; emission peak, active binding sites per subunit): 0.6 ± 0.2 | Kd (SdKefQCTD [3]): 19 ± 6 µM | no. of sites (n) (SdKefQCTD [3]; ITC): 0.7 ± 0.1 and 0.7 ± 0.2 | Kd (SdKefQCTD [4]): 8 ± 2 µM | no. of sites (n) (SdKefQCTD [4]; fluorescence anisotropy, sites per subunit): 1.1 ± 0.8

Compound: O=C1C=CC(=O)N1C1CCCCC1 [Compound 17, N-cyclohexylmaleimide]
K+ efflux (activation of Kef) (SdKef): causes rapid K^+ efflux

stoichiometry N [5]: 2 subunits
Compound: SdKefQCTD (soluble construct of the cytosolic regulatory domain of Kef from Shewanella denitrificans OS217, including the Q-linker) (domain or fragment)

Compound: N[C@@H](CCC(=O)N[C@@H](CS)C(=O)NCC(=O)O)C(=O)O [GSH, glutathione, reference compound]
DNGSHbound:DNGSHligand ratio of fluorescence (FB:FL), Kef binding (SdKefQCTD [1]): low FB:FL ratios | change in protein melting temperature (ΔTm) (SdKefQCTD [6]): negligible change | ITC signal on titration (SdKefQCTD [3]; could not be analyzed, data not shown): Only small signals | Kd (SdKefQCTD [7]): 900 ± 200 µM | no. of sites (n) (SdKefQCTD [7]; emission peak): 0.83 ± 0.04

Compound: C=CC(=O)CCCCC [Compound 22, 1-octen-3-one]
K+ efflux (activation of Kef) (SdKef): less effective at causing K^+ release; also recorded: causes little K^+ efflux

Compound: CCN1C(=O)C=CC1=O [NEM, N-ethylmaleimide]
rate constant for K+ efflux (SdKef; SdKef expressed in E. coli strain lacking KefFC and KefGB (MJF645), after addition of electrophile): high rate constant for K^+ efflux

DNGSHbound:DNGSHligand ratio of fluorescence (FB:FL), Kef binding (SdKefQCTD [1]): greatest Kef affinity | change in protein melting temperature (ΔTm) (SdKefQCTD [6]): greatest ΔTm | Kd (SdKefQCTD [3]; [8]): 6.7 ± 0.27 µM | no. of sites (n) (SdKefQCTD [3]; ITC): 0.41 ± 0.04 | Kd (SdKefQCTD [7]; [9]): 0.4 ± 0.2 µM | no. of sites (n) (SdKefQCTD [7]; emission peak): 0.7 ± 0.2
Compound: CC(C)(C)N1C(=O)CC(SCC(NC(=O)CCC(N)C(=O)O)C(=O)NCC(=O)O)C1=O (stereo not shown) [Compound 5, N-tert-butylsuccinimido-S-glutathione]

DNGSHbound:DNGSHligand ratio of fluorescence (FB:FL), Kef binding (SdKefQCTD [1]): high FB:FL ratios | Kd (SdKefQCTD [3]; [8]): 23 ± 4 µM | no. of sites (n) (SdKefQCTD [3]; ITC): 0.38 ± 0.05 | Kd (SdKefQCTD [7]; [9]): 12 ± 3 µM | no. of sites (n) (SdKefQCTD [7]; emission peak): 0.7 ± 0.2
Compound: CCN1C(=O)CC(SCC(NC(=O)CCC(N)C(=O)O)C(=O)NCC(=O)O)C1=O (stereo not shown) [ESG, N-ethylsuccinimido-S-glutathione, reference compound]

Kd (SdKefQCTD [7]; [9]): 4.4 ± 0.5 µM | no. of sites (n) (SdKefQCTD [7]; emission peak): 0.81 ± 0.05
Compound: CCCCCC(=O)CCSC[C@H](NC(=O)CC[C@H](N)C(=O)O)C(=O)NCC(=O)O [Compound 12]
